# Assay results taken from publication PMC5004176, “The antifungal plant defensin AtPDF2.3 from Arabidopsis thaliana blocks potassium channels” (Scientific Reports, 2016).
# Ends that are not written are not given here.
# Key:
# [1] = test system: Saccharomyces cerevisiae BY4741 ∆ppz1; test: Yeast growth inhibitory assay; type: cell-based; settings: BY4741 ∆ppz1, MM medium, 24 hours, OD490nm, mean ± SEM, n ≥ 3; read-out: IC50 (growth inhibition)
# plant pathogenic fungi = test: Fungal growth inhibitory assay, whole panel; type: cell-based; settings: range over the fungal panel of Table 1, 48 hours; read-out: IC50 values against all plant pathogenic fungi tested (range)
# [2] = test system: Saccharomyces cerevisiae BY4741 ∆sat4; test: Yeast growth inhibitory assay; type: cell-based; settings: BY4741 ∆sat4, MM medium, 24 hours, OD490nm, mean ± SEM, n ≥ 3; read-out: IC50 (growth inhibition)
# Kv1.1 = test: Two-electrode voltage-clamp on Kv1.1 expressed in X. laevis oocytes; settings: 3 μM, n ≥ 3
# Method: (§1) For the expression of the voltage-gated potassium channels (rKv1.1, rKv1.2, hKv1.3, rKv1.4, rKv1.5, rKv1.6, Shaker IR, hKv3.1, rKv4.3, and hERG) in Xenopus laevis oocytes, the linearized plasmids were transcribed using the T7 or SP6 mMESSAGE-mMACHINE transcription kit (Ambion). The harvesting of stage V–VI oocytes from an anaesthetized female X. laevis frog was previously described[59]. Oocytes were injected with 50 nL of cRNA at a concentration of 1 ng/nL using a micro-injector (Drummond Scientific, USA). The oocytes were incubated in a solution containing (in mM): NaCl, 96; KCl, 2; CaCl2, 1.8; MgCl2, 2 and HEPES, 5 (pH 7.4), supplemented with 50 mg/L gentamycin sulfate.
# (§2) Two-electrode voltage-clamp recordings were performed at room temperature (18–22 °C) using a Geneclamp 500 amplifier (Molecular Devices, USA) controlled by a pClamp data acquisition system (Axon Instruments, USA). Whole cell currents from oocytes were recorded 1–4 days after injection. Bath solution composition was ND96 (in mM): NaCl, 96; KCl, 2; CaCl2, 1.8; MgCl2, 2 and HEPES, 5 (pH 7.4) or HK (in mM): NaCl, 2; KCl, 96; CaCl2, 1.8; MgCl2, 2 and HEPES, 5 (pH 7.4). Voltage and current electrodes were filled with 3 M KCl. Resistances of both electrodes were kept between 0.7 and 1.5 MΩ. […] GV curves were calculated from IV relationships as follows: gK = IK/(Em−EK) with EK = (RT/zF)ln[K #0]o/[K #0]i. […]
# Kv1.6 channels = test: Two-electrode voltage-clamp on Kv1.6 expressed in X. laevis oocytes; settings: n ≥ 3
# Method: as §1
# (§3) Two-electrode voltage-clamp recordings were performed at room temperature (18–22 °C) using a Geneclamp 500 amplifier (Molecular Devices, USA) controlled by a pClamp data acquisition system (Axon Instruments, USA). Whole cell currents from oocytes were recorded 1–4 days after injection. Bath solution composition was ND96 (in mM): NaCl, 96; KCl, 2; CaCl2, 1.8; MgCl2, 2 and HEPES, 5 (pH 7.4) or HK (in mM): NaCl, 2; KCl, 96; CaCl2, 1.8; MgCl2, 2 and HEPES, 5 (pH 7.4). Voltage and current electrodes were filled with 3 M KCl. Resistances of both electrodes were kept between 0.7 and 1.5 MΩ. The elicited currents were filtered at 0.5 kHz and sampled at 2 kHz (for potassium currents) or filtered at 2 kHz and sampled at 20 kHz (for sodium currents) using a four-pole low-pass Bessel filter. Leak subtraction was performed using a -P/4 protocol. Kv1.1–Kv1.6 and Shaker currents were evoked by 250 ms depolarizations to 0 mV followed by a 250 ms pulse to −50 mV, from a holding potential of −90 mV. Current traces of hERG channels were elicited by applying a +40 mV prepulse for 2 s followed by a step to −120 mV for 2 s. […] In order to investigate the current–voltage relationship, current traces were evoked by 10 mV depolarization steps from a holding potential of −90 mV. To assess the concentration dependency of the toxin induced inhibitory effects, a concentration–response curve was constructed, in which the percentage of current inhibition was plotted as a function of toxin concentration. Data were fitted with the Hill equation: y = 100/[1 + (IC50/[toxin])^h], were y is the amplitude of the toxin-induced effect, IC50 is the toxin concentration at half-maximal efficacy, [toxin] is the toxin concentration, and h is the Hill coefficient. GV curves were calculated from IV relationships as follows: gK = IK/(Em−EK) with EK = (RT/zF)ln[K #0]o/[K #0]i. In these equations gK represents the conductance, IK the potassium current, Em the membrane potential, EK the reversal potential, R the gas constant (8.31 J/K mol), T the temperature, z the charge of the ion (for K+ ions: z = 1), F the Faraday’s constant (96.500 C/mol), [K #0]o and [K #0]i respectively are the extracellular and intracellular K+ ion concentrations. The values of IK or gK were plotted as function of voltage and fitted using the Boltzmann equation: gK/gmax = [1 + exp(Vg−V)/k]−1, were gmax represents maximal gK, Vg is the voltage corresponding to half-maximal conductance, and k is the slope factor. Comparison of two sample means was made using a paired Student’s t test (P < 0.05). All data represent at least three independent experiments (n ≥ 3) and are presented as mean ± standard error.
# [3] = test system: Saccharomyces cerevisiae BY4741 ∆tok1; test: Yeast growth inhibitory assay; type: cell-based; settings: BY4741 ∆tok1, MM medium, 24 hours, OD490nm, mean ± SEM, n ≥ 3; read-out: IC50 (growth inhibition)
# Kv1.2 channels = test: Two-electrode voltage-clamp on Kv1.2 expressed in X. laevis oocytes; settings: for inhibition of the potassium current: Kv1.2, n ≥ 5
# Method: as §1, §3
# Nav1.4 = test: Two-electrode voltage-clamp on Nav1.4 expressed in X. laevis oocytes; type: cell-based; settings: 5 μM, n ≥ 4
# Kv1.4 = test: Two-electrode voltage-clamp on Kv1.4 expressed in X. laevis oocytes; settings: 3 μM, n ≥ 3
# Method: as §1, §2
# [4] = test system: Saccharomyces cerevisiae BY4741 ∆ppz2; test: Yeast growth inhibitory assay; type: cell-based; settings: BY4741 ∆ppz2, MM medium, 24 hours, OD490nm, mean ± SEM, n ≥ 3; read-out: IC50 (growth inhibition)
# Verticillium dahliae = test: Fungal growth inhibitory assay; type: cell-based; settings: half strength PDB, 10^4 spores/mL, 48 hours, determined microscopically, n ≥ 3; read-out: IC50 (growth inhibition)
# [5] = test system: Saccharomyces cerevisiae BY4741 ∆nha1; test: Yeast growth inhibitory assay; type: cell-based; settings: BY4741 ∆nha1, MM medium, 24 hours, OD490nm, mean ± SEM, n ≥ 3; read-out: IC50 (growth inhibition)
# [6] = test system: Saccharomyces cerevisiae BY4741 ∆arl1; test: Yeast growth inhibitory assay; type: cell-based; settings: BY4741 ∆arl1, MM medium, 24 hours, OD490nm, mean ± SEM, n ≥ 3; read-out: IC50 (growth inhibition)
# [7] = test system: Saccharomyces cerevisiae BY4741 ∆kkq8; test: Yeast growth inhibitory assay; type: cell-based; settings: BY4741 ∆kkq8, MM medium, 24 hours, OD490nm, mean ± SEM, n ≥ 3; read-out: IC50 (growth inhibition)
# Botrytis cinerea R16 = test: Fungal growth inhibitory assay; type: cell-based; settings: half strength PDB, 10^4 spores/mL, 48 hours, determined microscopically, n ≥ 3; read-out: IC50 (growth inhibition)
# [8] = test system: Saccharomyces cerevisiae BY4741 ∆qdr2; test: Yeast growth inhibitory assay; type: cell-based; settings: BY4741 ∆qdr2, MM medium, 24 hours, OD490nm, mean ± SEM, n ≥ 3; read-out: IC50 (growth inhibition)
# Fusarium culmorum = test: Fungal growth inhibitory assay; type: cell-based; settings: half strength PDB, 10^4 spores/mL, 48 hours, determined microscopically, n ≥ 3; read-out: IC50 (growth inhibition)
# [9] = test system: Saccharomyces cerevisiae BY4741 ∆vhc1; test: Yeast growth inhibitory assay; type: cell-based; settings: BY4741 ∆vhc1, MM medium, 24 hours, OD490nm, mean ± SEM, n ≥ 3; read-out: IC50 (growth inhibition)
# [10] = test system: Fusarium graminearum PH-1; type: cell-based; settings: read-out: IC50 (growth inhibition)
# Botrytis cinerea B05.10 = test: Fungal growth inhibitory assay; type: cell-based; settings: half strength PDB, 10^4 spores/mL, 48 hours, determined microscopically, n ≥ 3; read-out: IC50 (growth inhibition)
# hERG (Kv11.1) = test: Two-electrode voltage-clamp on hERG expressed in X. laevis oocytes; settings: 3 μM, n ≥ 3
# Method: as §1, §2
# insect channel DmNav1 = test: Two-electrode voltage-clamp on DmNav1 expressed in X. laevis oocytes; type: cell-based; settings: 5 μM, n ≥ 4
# [11] = test system: Saccharomyces cerevisiae BY4741 ∆trk2; test: Yeast growth inhibitory assay; type: cell-based; settings: BY4741 ∆trk2, MM medium, 24 hours, OD490nm, mean ± SEM, n ≥ 3; read-out: IC50 (growth inhibition)
# HepG2 cells = type: cell-based; settings: up to 25 μM, 24 hours, XTT, relative to untreated, at least two experiments in quadruplicate
# Method: HepG2 cells were seeded at 10.000 cells/well in 96-well plates and incubated for 24 hours. Subsequently, cells were treated either with water (untreated) or rAtPDF2.3 (0.01 μM–23.5 μM) for 24 hours after which cell viability was determined using the ‘Cell Proliferation Kit II (XTT) as described previously. ANOVA followed by Dunnett post hoc test was performed to analyze statistically significant differences between untreated and rAtPDF2.3-treated samples.
# Supplementary Figure S4 Activity of rAtPDF2.3 on HepG2 cell viability. HepG2 cells were treated either with water (untreated) or rAtPDF2.3 (0.01 µM – 24.3 µM) for 24 hours, after which cell viability was determined by XTT staining. Results are expressed relative to the untreated samples. Mean ± standard error of at least two experiments in quadruplicate is shown. ANOVA followed by Dunnet post hoc test performed to analyze statistically significant differences between untreated and rAtPDF2.3-treated samples; * represents P = 0.03.
# (1 picture or pasted object on this page, not shown here)
# [12] = test system: Saccharomyces cerevisiae BY4743 ∆frq1; test: Yeast growth inhibitory assay; type: cell-based; settings: BY4743 ∆frq1, MM medium, 24 hours, OD490nm, mean ± SEM, n ≥ 3; read-out: IC50 (growth inhibition)
# Kv1.5 = test: Two-electrode voltage-clamp on Kv1.5 expressed in X. laevis oocytes; settings: 3 μM, n ≥ 3
# Method: as §1, §2
substance,measurement,setting,value
rAtPDF2.3: Arabidopsis thaliana plant defensin AtPDF2.3 produced recombinantly in Pichia pastoris (RTCESKSHRFKGPCVSTHNCANVCHNEGFGGGKCRGFRRRCYCTRHC; ends and bridges not checked; cysteine pairing not given here),IC50,[1],10.1 ± 0.5 µM
same,IC50,plant pathogenic fungi,1 to 5.8 µM
same,IC50,[2],5.1 ± 0.1 µM
same,activity on Kv1.1 at single concentration,Kv1.1,no effect
same,activity on Kv1.6 at single concentration,Kv1.6 channels; 3 μM,can block
same,IC50,"Kv1.6 channels; read-out: IC50 for Kv1.6, two-electrode voltage-clamp, X. laevis oocytes, concentration-response curve fitted with Hill equation, mean ± standard error",0.978 ± 0.113 µM
same,IC50,[3],7.7 ± 0.5 µM
same,inhibition of the potassium current,"Kv1.2 channels; 2 μM, HK solution",66 ± 4%
same,inhibition of the potassium current,"Kv1.2 channels; 2 μM, ND96 solution",59 ± 3%
same,activity on Kv1.2 at single concentration,"Kv1.2 channels; 3 μM, n ≥ 3",can block
same,reversal potential EK after application of defensin,"Kv1.2 channels; HK solution, 2 μM, Kv1.2, control −4 ± 1 mV, P > 0.05, n ≥ 4",−2 ± 1 mV
same,V1/2 of gV curve in the presence of defensin,"Kv1.2 channels; ND96, 2 μM, Kv1.2, control 8 ± 3 mV, n ≤ 4 as printed",5 ± 2 mV
same,reversibility of Kv1.2 block upon washout,Kv1.2 channels; current recovers quickly and completely upon washout (data not shown),blocking is reversible
same,IC50,"Kv1.2 channels; read-out: IC50 for Kv1.2, two-electrode voltage-clamp, X. laevis oocytes, concentration-response curve fitted with Hill equation, mean ± standard error, n ≥ 3",1.3 ± 0.2 µM
same,voltage dependence of inhibition of Kv1.2 channels,Kv1.2 channels; test potentials from −30 to +30 mV,not voltage-dependent
same,activity on Nav1.4,Nav1.4,does not show activity
same,activity on Kv1.4 at single concentration,Kv1.4,no effect
same,IC50,[4],8.6 ± 0.5 µM
same,IC50,Verticillium dahliae,4.4 ± 1.6 µM
same,IC50,[5],9.1 ± 0.7 µM
same,IC50,[6],5.7 ± 0.2 µM
same,IC50,[7],7.1 ± 0.1 µM
same,IC50,Botrytis cinerea R16,5.8 µM
same,IC50,[8],2.9 ± 0.2 µM
same,IC50,Fusarium culmorum,1 ± 0.4 µM
same,IC50,[9],8 ± 0.2 µM
same,IC50,[10],1.4 µM
same,IC50,Botrytis cinerea B05.10,5.8 µM
same,activity on hERG (Kv11.1) at single concentration,hERG (Kv11.1),no effect
same,activity on DmNav1,insect channel DmNav1,does not show activity
same,IC50,[11],7 ± 0.6 µM
same,cell viability in HepG2 cells,HepG2 cells,does not reduce cell viability
same,IC50,[12],3.1 ± 0.1 µM
same,activity on Kv1.5 at single concentration,Kv1.5,no effect
